Among the targets are PIK3CD (Human) (UniProt O00329); PIK3CG (human) (UniProt P48736); PIK3CB (Human) (UniProt P42338); PIK3CA (human) (UniProt P42336).
Common to all, as to experiment: Enzyme Assay

Chain of PIK3CB (Human) (P42338 whole entry, looked up): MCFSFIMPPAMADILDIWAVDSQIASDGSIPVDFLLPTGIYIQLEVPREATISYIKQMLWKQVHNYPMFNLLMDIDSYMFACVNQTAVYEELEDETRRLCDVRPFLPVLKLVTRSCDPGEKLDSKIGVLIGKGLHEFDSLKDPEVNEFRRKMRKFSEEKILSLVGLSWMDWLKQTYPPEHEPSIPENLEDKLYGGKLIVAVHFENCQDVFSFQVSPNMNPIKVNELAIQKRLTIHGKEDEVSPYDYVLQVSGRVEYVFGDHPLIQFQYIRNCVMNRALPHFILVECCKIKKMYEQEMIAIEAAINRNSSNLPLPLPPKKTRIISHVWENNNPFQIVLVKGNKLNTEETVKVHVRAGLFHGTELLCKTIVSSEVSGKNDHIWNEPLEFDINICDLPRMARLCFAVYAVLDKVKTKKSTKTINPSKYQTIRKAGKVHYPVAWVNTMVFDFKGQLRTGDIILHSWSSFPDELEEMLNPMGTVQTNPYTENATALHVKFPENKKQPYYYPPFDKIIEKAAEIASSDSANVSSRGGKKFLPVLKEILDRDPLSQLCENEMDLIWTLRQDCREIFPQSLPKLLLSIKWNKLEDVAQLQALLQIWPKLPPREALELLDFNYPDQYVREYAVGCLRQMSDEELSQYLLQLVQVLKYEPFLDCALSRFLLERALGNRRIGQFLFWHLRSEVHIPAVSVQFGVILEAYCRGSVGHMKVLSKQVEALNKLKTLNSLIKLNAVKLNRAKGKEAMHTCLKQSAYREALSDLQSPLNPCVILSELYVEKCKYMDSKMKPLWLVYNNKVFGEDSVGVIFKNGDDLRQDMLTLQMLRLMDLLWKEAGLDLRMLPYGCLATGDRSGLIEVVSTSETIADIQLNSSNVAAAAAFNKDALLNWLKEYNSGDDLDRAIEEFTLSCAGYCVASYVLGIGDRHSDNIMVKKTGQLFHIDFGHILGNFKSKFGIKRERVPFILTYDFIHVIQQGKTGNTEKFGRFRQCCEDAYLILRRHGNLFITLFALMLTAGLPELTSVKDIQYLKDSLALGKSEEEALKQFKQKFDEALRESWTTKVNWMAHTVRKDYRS
Chain of PIK3CG (human) (P48736 whole entry, looked up): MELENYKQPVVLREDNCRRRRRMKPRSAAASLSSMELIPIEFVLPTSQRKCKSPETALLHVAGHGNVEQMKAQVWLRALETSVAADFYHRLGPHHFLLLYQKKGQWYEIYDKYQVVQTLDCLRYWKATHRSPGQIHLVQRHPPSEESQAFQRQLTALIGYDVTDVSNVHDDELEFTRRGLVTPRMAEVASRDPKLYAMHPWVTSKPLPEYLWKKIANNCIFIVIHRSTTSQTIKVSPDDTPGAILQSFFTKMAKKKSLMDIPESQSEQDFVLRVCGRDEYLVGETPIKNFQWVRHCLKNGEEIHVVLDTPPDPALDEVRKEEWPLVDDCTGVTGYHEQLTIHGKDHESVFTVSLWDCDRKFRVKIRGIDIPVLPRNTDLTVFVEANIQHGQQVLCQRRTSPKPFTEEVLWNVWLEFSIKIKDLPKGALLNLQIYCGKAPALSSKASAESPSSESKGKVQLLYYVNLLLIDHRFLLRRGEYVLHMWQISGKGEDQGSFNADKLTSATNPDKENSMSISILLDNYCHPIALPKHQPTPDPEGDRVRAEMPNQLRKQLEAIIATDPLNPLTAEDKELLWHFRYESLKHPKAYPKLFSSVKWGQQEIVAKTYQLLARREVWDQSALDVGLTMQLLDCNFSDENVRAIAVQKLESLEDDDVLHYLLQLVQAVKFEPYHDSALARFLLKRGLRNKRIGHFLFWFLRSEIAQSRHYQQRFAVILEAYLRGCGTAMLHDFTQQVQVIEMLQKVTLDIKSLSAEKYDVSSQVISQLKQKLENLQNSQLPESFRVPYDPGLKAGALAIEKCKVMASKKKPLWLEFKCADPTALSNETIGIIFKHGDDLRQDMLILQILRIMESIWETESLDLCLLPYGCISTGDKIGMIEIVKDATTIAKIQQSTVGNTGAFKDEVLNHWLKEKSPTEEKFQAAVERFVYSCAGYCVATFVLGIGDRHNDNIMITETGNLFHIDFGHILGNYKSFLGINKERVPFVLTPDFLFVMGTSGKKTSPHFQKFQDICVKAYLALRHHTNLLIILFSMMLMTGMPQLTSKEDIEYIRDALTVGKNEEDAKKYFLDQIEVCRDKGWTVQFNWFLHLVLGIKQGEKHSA
Chain of PIK3CD (Human) (O00329 whole entry, looked up): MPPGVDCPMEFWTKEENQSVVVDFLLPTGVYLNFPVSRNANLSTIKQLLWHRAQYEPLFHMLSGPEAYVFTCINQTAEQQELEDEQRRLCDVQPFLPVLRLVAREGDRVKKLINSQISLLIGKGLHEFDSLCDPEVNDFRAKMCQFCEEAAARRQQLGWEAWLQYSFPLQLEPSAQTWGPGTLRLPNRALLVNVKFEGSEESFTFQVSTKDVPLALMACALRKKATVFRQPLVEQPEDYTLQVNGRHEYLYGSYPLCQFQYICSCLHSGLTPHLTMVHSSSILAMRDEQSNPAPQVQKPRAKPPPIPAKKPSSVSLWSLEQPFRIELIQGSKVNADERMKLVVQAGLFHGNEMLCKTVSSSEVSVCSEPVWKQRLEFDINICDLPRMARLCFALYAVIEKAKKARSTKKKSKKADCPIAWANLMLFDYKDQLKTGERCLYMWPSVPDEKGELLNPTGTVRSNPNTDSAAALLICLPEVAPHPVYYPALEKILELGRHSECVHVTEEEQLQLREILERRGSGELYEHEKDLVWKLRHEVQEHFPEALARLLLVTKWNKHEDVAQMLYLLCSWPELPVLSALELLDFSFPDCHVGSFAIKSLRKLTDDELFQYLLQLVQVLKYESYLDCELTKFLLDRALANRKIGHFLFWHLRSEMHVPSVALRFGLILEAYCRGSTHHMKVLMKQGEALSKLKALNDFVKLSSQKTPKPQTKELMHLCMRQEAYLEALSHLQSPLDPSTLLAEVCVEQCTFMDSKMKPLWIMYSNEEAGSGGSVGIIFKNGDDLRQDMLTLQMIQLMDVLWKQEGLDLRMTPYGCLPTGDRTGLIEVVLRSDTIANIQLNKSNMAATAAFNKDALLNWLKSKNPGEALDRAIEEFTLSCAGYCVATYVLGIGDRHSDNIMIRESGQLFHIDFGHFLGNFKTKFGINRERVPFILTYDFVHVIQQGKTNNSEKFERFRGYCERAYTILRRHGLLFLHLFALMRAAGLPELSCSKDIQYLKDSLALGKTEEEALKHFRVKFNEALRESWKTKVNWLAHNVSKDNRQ
Chain of PIK3CA (human) (P42336 whole entry, looked up): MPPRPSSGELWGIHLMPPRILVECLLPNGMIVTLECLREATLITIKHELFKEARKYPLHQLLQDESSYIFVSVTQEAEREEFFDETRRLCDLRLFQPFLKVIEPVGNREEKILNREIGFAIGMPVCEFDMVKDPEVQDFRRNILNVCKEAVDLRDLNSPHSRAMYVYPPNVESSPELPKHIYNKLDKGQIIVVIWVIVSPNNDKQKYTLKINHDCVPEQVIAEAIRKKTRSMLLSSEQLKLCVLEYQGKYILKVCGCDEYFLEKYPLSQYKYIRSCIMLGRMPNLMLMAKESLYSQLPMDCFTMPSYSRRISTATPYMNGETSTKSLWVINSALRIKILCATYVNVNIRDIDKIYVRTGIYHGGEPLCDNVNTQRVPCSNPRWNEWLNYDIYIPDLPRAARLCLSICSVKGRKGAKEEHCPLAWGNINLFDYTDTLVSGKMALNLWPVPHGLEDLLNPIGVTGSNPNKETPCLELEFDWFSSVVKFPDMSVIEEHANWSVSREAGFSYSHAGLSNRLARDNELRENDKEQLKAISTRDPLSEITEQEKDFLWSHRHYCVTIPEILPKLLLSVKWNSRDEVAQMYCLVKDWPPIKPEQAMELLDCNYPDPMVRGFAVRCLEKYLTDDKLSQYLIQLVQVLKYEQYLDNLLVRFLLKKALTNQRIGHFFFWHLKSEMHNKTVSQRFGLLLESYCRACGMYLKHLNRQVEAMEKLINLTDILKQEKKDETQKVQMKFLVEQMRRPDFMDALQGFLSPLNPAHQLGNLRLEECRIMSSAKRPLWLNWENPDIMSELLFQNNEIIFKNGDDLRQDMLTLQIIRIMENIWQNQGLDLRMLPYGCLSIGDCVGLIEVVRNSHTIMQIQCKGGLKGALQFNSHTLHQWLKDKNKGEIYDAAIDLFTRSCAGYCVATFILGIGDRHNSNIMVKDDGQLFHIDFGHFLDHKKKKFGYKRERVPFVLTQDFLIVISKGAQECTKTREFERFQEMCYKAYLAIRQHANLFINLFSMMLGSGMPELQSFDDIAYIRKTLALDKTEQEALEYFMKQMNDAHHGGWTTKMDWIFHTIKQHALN

A word on the IC50: it is the concentration needed to halve the response being measured. High values mean lower potency, low ones higher potency. For the molecule `CN1CCN(Cc2cc3nc(-c4cccc(O)c4)nc(N4CCOCC4)c3s2)CC1`, the IC50 came to 4 nM at PIK3CD (Human), 331 nM against PIK3CG (human) and 35 nM at PIK3CB (Human).
As for `CNC(=O)Nc1ccc(-c2nc(N3CC4CCC(C3)O4)c3cnn(C4CCC5(CC4)OCCO5)c3n2)cc1`, the IC50 at PIK3CG (human) and on PIK3CB (Human) was > 10000 nM each time.
Take `COc1ncc(-c2ccc3nccc(-c4ccnnc4)c3c2)cc1NS(=O)(=O)c1ccc(F)cc1F`: the IC50 against PIK3CG (human) amounted to 0.06 nM.
On to `OCCN1CCN(Cc2cc3nc(-c4cccc(O)c4)nc(N4CCOCC4)c3s2)CC1`, for which the results for the IC50 on PIK3CD (Human), on PIK3CG (human) and at PIK3CB (Human) were 8 nM, 672 nM and 63 nM, respectively.
On PIK3CG (human), `COC(=O)Nc1ccc(-c2nc(N3CCOCC3)c3cnn(C4CCN(Cc5cccnc5)CC4)c3n2)cc1` yielded an IC50 of 3110 nM. In other words, the single-digit micromolar range.
For `c1cncc(CN2CCC(n3ncc4c(N5CCOCC5)nc(-c5ccc6[nH]ccc6c5)nc43)CC2)c1`, at PIK3CG (human), the IC50 stood at 8450 nM.
Molecule `COC(=O)Nc1ccc(-c2nc(N3CCOCC3)c3cnn(C4CCN(C(=O)OC)CC4)c3n2)cc1` registered an IC50 on PIK3CG (human) of 7370 nM.
For the molecule `COc1ccc(-c2ccc3c(N4CCOC[C@@H]4C)nc(N4CCOC[C@@H]4C)nc3n2)cc1CO`, the IC50 against PIK3CD (Human) was 3200 nM; against PIK3CG (human), > 14800 nM; against PIK3CB (Human), 18900 nM; at PIK3CA (human) it was 3590 nM.
The corresponding values for `CCC(NC(=O)C(CC(=O)O)NC(=O)CNC(=O)C(CCCN=C(N)N)NC(=O)CCC(=O)O[N+]1(c2cc(=O)c3cccc(-c4ccccc4)c3o2)CCOCC1)C(=O)[O-]` (stereo not given) are 3220 nM, 1770 nM, 736 nM and 356 nM.

(Values after the Kinase Knowledgebase extract (Sharma et al. 2016).)
